In the NIST ThermoML archive (doi:10.1016/j.jct.2007.09.009):
Values joined by “and” are separate entries in the source; they are usually repeats but may differ in a detail not shown here. Equal values may be shown once. Numbers after ± are expanded uncertainties.

Assay: xn = mol fraction of the nth substance listed
Settings: 313.15 K, 101 kPa, Liquid, Direct dilatometry

Structure (SMILES): CC(=O)N(C)C [N,N-dimethylethanamide] + O
- excess molar volume (x1 = 0.0092): -3.79e-08 ± 3.2e-09 m3/mol
- excess molar volume (x1 = 0.0196): -8.59e-08 ± 3.2e-09 m3/mol
- excess molar volume (x1 = 0.03): -1.402e-07 ± 3.3e-09 m3/mol
- excess molar volume (x1 = 0.0556): -2.881e-07 ± 3.5e-09 m3/mol
- excess molar volume (x1 = 0.0704): -3.778e-07 ± 3.6e-09 m3/mol
- excess molar volume (x1 = 0.0823): -4.496e-07 ± 3.7e-09 m3/mol
- excess molar volume (x1 = 0.0853): -4.67e-07 ± 3.6e-09 m3/mol
- excess molar volume (x1 = 0.091): -4.98e-07 ± 3.7e-09 m3/mol
- excess molar volume (x1 = 0.0968): -5.344e-07 ± 3.8e-09 m3/mol
- excess molar volume (x1 = 0.0981): -5.428e-07 ± 3.8e-09 m3/mol
- excess molar volume (x1 = 0.1063): -5.918e-07 ± 3.8e-09 m3/mol
- excess molar volume (x1 = 0.1088): -6.146e-07 ± 3.8e-09 m3/mol
- excess molar volume (x1 = 0.1167): -6.527e-07 ± 3.8e-09 m3/mol
- excess molar volume (x1 = 0.1258): -7.063e-07 ± 3.9e-09 m3/mol
- excess molar volume (x1 = 0.1364): -7.653e-07 ± 3.9e-09 m3/mol
- excess molar volume (x1 = 0.1478): -8.283e-07 ± 4e-09 m3/mol
- excess molar volume (x1 = 0.1603): -8.946e-07 ± 4e-09 m3/mol
- excess molar volume (x1 = 0.1651): -9.21e-07 ± 4e-09 m3/mol
- excess molar volume (x1 = 0.1728): -9.553e-07 ± 4.1e-09 m3/mol and -9.577e-07 ± 4.1e-09 m3/mol
- excess molar volume (x1 = 0.1851): -1.017e-06 ± 4.1e-09 m3/mol
- excess molar volume (x1 = 0.1902): -1.039e-06 ± 4.1e-09 m3/mol
- excess molar volume (x1 = 0.2039): -1.098e-06 ± 4.2e-09 m3/mol
- excess molar volume (x1 = 0.2221): -1.172e-06 ± 4.2e-09 m3/mol
- excess molar volume (x1 = 0.2379): -1.229e-06 ± 4.3e-09 m3/mol
- excess molar volume (x1 = 0.2514): -1.273e-06 ± 4.3e-09 m3/mol
- excess molar volume (x1 = 0.2642): -1.315e-06 ± 4.3e-09 m3/mol
- excess molar volume (x1 = 0.2665): -1.318e-06 ± 4.3e-09 m3/mol
- excess molar volume (x1 = 0.2718): -1.334e-06 ± 4.4e-09 m3/mol
- excess molar volume (x1 = 0.2773): -1.349e-06 ± 4.4e-09 m3/mol
- excess molar volume (x1 = 0.2787): -1.35e-06 ± 4.4e-09 m3/mol
- excess molar volume (x1 = 0.2883): -1.374e-06 ± 4.4e-09 m3/mol
- excess molar volume (x1 = 0.2987): -1.397e-06 ± 4.4e-09 m3/mol
- excess molar volume (x1 = 0.31): -1.418e-06 ± 4.4e-09 m3/mol
- excess molar volume (x1 = 0.3216): -1.44e-06 ± 4.5e-09 m3/mol
- excess molar volume (x1 = 0.3377): -1.463e-06 ± 4.5e-09 m3/mol
- excess molar volume (x1 = 0.352): -1.479e-06 ± 4.5e-09 m3/mol
- excess molar volume (x1 = 0.3679): -1.493e-06 ± 4.5e-09 m3/mol
- excess molar volume (x1 = 0.3759): -1.501e-06 ± 4.5e-09 m3/mol
- excess molar volume (x1 = 0.3782): -1.499e-06 ± 4.5e-09 m3/mol
- excess molar volume (x1 = 0.3812): -1.502e-06 ± 4.5e-09 m3/mol
- excess molar volume (x1 = 0.3884): -1.506e-06 ± 4.5e-09 m3/mol
- excess molar volume (x1 = 0.3918): -1.505e-06 ± 4.5e-09 m3/mol
- excess molar volume (x1 = 0.3948): -1.508e-06 ± 4.5e-09 m3/mol
- excess molar volume (x1 = 0.4047): -1.511e-06 ± 4.5e-09 m3/mol
- excess molar volume (x1 = 0.4141): -1.511e-06 ± 4.5e-09 m3/mol
- excess molar volume (x1 = 0.4248): -1.511e-06 ± 4.5e-09 m3/mol
- excess molar volume (x1 = 0.4402): -1.507e-06 ± 4.5e-09 m3/mol
- excess molar volume (x1 = 0.4583): -1.497e-06 ± 4.5e-09 m3/mol
- excess molar volume (x1 = 0.47): -1.489e-06 ± 4.5e-09 m3/mol
- excess molar volume (x1 = 0.4759): -1.487e-06 ± 4.5e-09 m3/mol
- excess molar volume (x1 = 0.4881): -1.473e-06 ± 4.5e-09 m3/mol
- excess molar volume (x1 = 0.4976): -1.464e-06 ± 4.5e-09 m3/mol
- excess molar volume (x1 = 0.5257): -1.43e-06 ± 4.4e-09 m3/mol
- excess molar volume (x1 = 0.5546): -1.38e-06 ± 4.4e-09 m3/mol
- excess molar volume (x1 = 0.5961): -1.295e-06 ± 4.3e-09 m3/mol
- excess molar volume (x1 = 0.6483): -1.173e-06 ± 4.2e-09 m3/mol
- excess molar volume (x1 = 0.6819): -1.082e-06 ± 4.1e-09 m3/mol
- excess molar volume (x1 = 0.7273): -9.449e-07 ± 4e-09 m3/mol
- excess molar volume (x1 = 0.732): -9.375e-07 ± 4e-09 m3/mol
- excess molar volume (x1 = 0.755): -8.613e-07 ± 3.9e-09 m3/mol
- excess molar volume (x1 = 0.7743): -8.015e-07 ± 3.9e-09 m3/mol
- excess molar volume (x1 = 0.7939): -7.378e-07 ± 3.8e-09 m3/mol
- excess molar volume (x1 = 0.8089): -6.896e-07 ± 3.7e-09 m3/mol
- excess molar volume (x1 = 0.8158): -6.653e-07 ± 3.7e-09 m3/mol
- excess molar volume (x1 = 0.8331): -6.07e-07 ± 3.7e-09 m3/mol
- excess molar volume (x1 = 0.8622): -5.075e-07 ± 3.6e-09 m3/mol
- excess molar volume (x1 = 0.8823): -4.342e-07 ± 3.6e-09 m3/mol
- excess molar volume (x1 = 0.884): -4.256e-07 ± 3.6e-09 m3/mol
- excess molar volume (x1 = 0.9064): -3.494e-07 ± 3.4e-09 m3/mol
- excess molar volume (x1 = 0.9258): -2.754e-07 ± 3.3e-09 m3/mol
- excess molar volume (x1 = 0.9539): -1.863e-07 ± 3.7e-09 m3/mol
- excess molar volume (x1 = 0.9568): -1.596e-07 ± 3.7e-09 m3/mol
- excess molar volume (x1 = 0.9716): -1.062e-07 ± 3.2e-09 m3/mol
